Results published in US20060057228A1, “Weight loss composition” (Pure World Botanicals, Inc., priority 2004, published 2006).

Tested on: undifferentiated 3T3-L1 cell
Assay: Anti-adipogenesis assay on undifferentiated 3T3-L1 cell
Assay type: cell-based
Source text: The major component of weight gain is the increase and accumulation of fat through adipogenesis process. Adipogenesis is characterized by increase of both fat cell number and fat cell size. The weight loss composition of the present invention, banaba extracts, and some active components which were isolated from banaba have shown strong activity through an inhibitory activity on adipocyte differentiation to block fat cell synthesis to achieve the effect on bodyweight control and body fat loss. The following is the list of the results of anti-adipogenesis assay (Table 4).

[1] = concentration level 0.002% (w/w)
[2] = concentration level 0.004% (w/w)
[3] = concentration level 0.05% (w/w)
[4] = concentration level 0.10% (w/w)

| Molecule | Percent of inhibitory [1] | Percent of inhibitory [2] | Percent of inhibitory [3] | Percent of inhibitory [4] |
| --- | --- | --- | --- | --- |
| COc1c(O)cc2c(=O)oc3c(O)c(O)cc4c(=O)oc1c2c34 [3-O-methylellegic acid] | 97% | 98% |  |  |
| O=C(O[C@@H]1COC(=O)c2cc(O)c(O)c(O)c2-c2c(cc(O)c(O)c2O)C(=O)O[C@H]1[C@@H]1OC(=O)c2cc(O)c(O)c(O)c2-c2c(O)c(O)c(O)c3c2C(=O)O[C@H]1[C@@H]3O)c1cc(O)c(O)c(O)c1 [Casuarinin] | 100% | 100% | 100% | 100% |
| Banasulin | 96% | 79% | 99% |  |
| Lagerstroemin | 100% | 100% | 100% | 100% |
